Drawing on ChEMBL document CHEMBL5331091, “Design, synthesis and evaluation of antitumor activity of selective PRMT6 inhibitors” (Eur J Med Chem, 2023), this text covers IC50 and Activity for 35 molecules.

For experiment [1], the system named is MDA-MB-435. Nature of the experiment: Antiproliferative activity against human MDA-MB-435 cells for 3 days by MTT assay. Particulars: MDA-MB-435, 72 h. (Tetrazolium assays rely on reduction of a dye to a coloured formazan, in cell work by metabolically active cells.)
Experiment [2] concerns MDA-MB-435. Description: Antiproliferative activity against human MDA-MB-435 cells for 5 days by MTT assay. As to conditions: MDA-MB-435, 120 h.
The test system of experiment [3] is MDA-MB-435. Nature of the experiment: Antiproliferative activity against human MDA-MB-435 cells for 7 days by MTT assay. Particulars: MDA-MB-435, 168 h.
For experiment [4], the system named is HCC827. Description: Antiproliferative activity against human HCC827 cells for 3 days by MTT assay. Particulars: HCC827, 72 h.
For experiment [5], the system named is HCC827. Nature of the experiment: Antiproliferative activity against human HCC827 cells for 5 days by MTT assay. As to conditions: HCC827, 120 h.
In experiment [6] the test system is HCC827. Nature of the experiment: Antiproliferative activity against human HCC827 cells for 7 days by MTT assay. Particulars: HCC827, 168 h.
In experiment [7] the test system is HCC827. Nature of the experiment: Induction of apoptosis in human HCC827 cells assessed as early apoptotic cells at 40 uM for 3 days by Annexin V and PI staining based flow cytometric analysis (reference value: 0.44%). As to conditions: time 3 day. It is filed as functional. (A flow cytometer gives signals particle by particle.)
Experiment [8] concerns HCC827. Nature of the experiment: Induction of apoptosis in human HCC827 cells assessed as late apoptotic cells at 40 uM for 3 days by Annexin V and PI staining based flow cytometric analysis (reference value: 0.05%). It is filed as functional. Particulars: time 3 day.
Experiment [9] deals with HCC827. Nature of the experiment: Induction of apoptosis in human HCC827 cells assessed as necrotic cells at 40 uM for 3 days by Annexin V and PI staining based flow cytometric analysis (reference value: 0.65%). It is filed as functional. As to conditions: time 3 day.
Experiment [10] concerns MDA-MB-435. Description: Induction of apoptosis in human MDA-MB-435 cells assessed as early apoptotic cells at 40 uM for 3 days by Annexin V and PI staining based flow cytometric analysis (reference value: 0.38%). The experiment is classed as functional. Particulars: time 3 day.
The subject of experiment [11] is MDA-MB-435. Description: Induction of apoptosis in human MDA-MB-435 cells assessed as late apoptotic cells at 40 uM for 3 days by Annexin V and PI staining based flow cytometric analysis (reference value: 0.45%). The experiment is classed as functional. Particulars: time 3 day.
The subject of experiment [12] is MDA-MB-435. Description: Induction of apoptosis in human MDA-MB-435 cells assessed as necrotic cells at 40 uM for 3 days by Annexin V and PI staining based flow cytometric analysis (reference value: 0.61%). The experiment is classed as functional. As to conditions: time 3 day.
The target of experiment [13] is Protein arginine N-methyltransferase 6 (Homo sapiens, UniProt Q96LA8).
Chain of Protein arginine N-methyltransferase 6 (Q96LA8 whole entry): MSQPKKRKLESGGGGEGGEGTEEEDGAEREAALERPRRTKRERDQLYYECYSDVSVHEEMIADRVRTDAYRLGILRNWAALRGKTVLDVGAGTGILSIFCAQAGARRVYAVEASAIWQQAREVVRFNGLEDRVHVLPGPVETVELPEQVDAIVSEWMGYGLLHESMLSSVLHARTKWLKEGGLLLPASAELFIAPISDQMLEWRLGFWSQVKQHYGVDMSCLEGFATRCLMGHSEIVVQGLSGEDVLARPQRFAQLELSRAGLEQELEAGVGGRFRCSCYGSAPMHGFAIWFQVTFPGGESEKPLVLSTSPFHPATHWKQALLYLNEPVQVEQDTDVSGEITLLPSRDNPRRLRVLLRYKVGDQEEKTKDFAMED
Description: Inhibition of PRMT6 (unknown origin) by AlphaLISA assay in vitro assay

What is called IC50 is the concentration at which inhibition is half-maximal. Lower therefore signals higher potency. Regarding `CNCCN(C)Cc1c[nH]nc1-c1ccc(O[C@H]2C[C@H](OCCC3CCOCC3)C2)cc1`, the IC50 in experiment [1] is 94.7 µM; in [2] it was 90.4 µM; in [3], 1100 nM; in experiment [4], over 100 µM; in experiment [5] it was 8.57 µM; in [6] it was 4.15 µM. The molecule further showed a half-maximal inhibitory concentration (IC50) in [13] of 7.1 nM. Also, the Activity in [7] is given as 3.11%; in [8], 6.69%; in [9] it was 3.65%; in experiment [10], 0.93%; in experiment [11], 2.82%; in experiment [12] it was 0.64%.

In turn, `CN(CCN)Cc1cncc(-c2cccc(NS(=O)(=O)c3cccs3)c2)c1` registered an IC50 in experiment [13] of over 5000 nM.

`CN(CCN)Cc1cncc(-c2ccc(CN3CCOCC3)cc2)c1` showed an IC50 in experiment [13] of 5240 nM.

As for `CNCCN(C)Cc1cncc(-c2cccc(NS(=O)(=O)c3ccc(C)cc3)c2)c1`, in experiment [13], the IC50 was over 5000 nM.

In experiment [13], `CNCCN(C)Cc1cncc(-c2cccc(NS(=O)(=O)C(F)(F)F)c2)c1` registered a half-maximal inhibitory concentration (IC50) of 684 nM.

Molecule `CNCCN(C)Cc1cncc(-c2cccc(NS(=O)(=O)c3cccs3)c2)c1` registered an IC50 in [13] of 2570 nM.

As for `CNCCN(C)Cc1cncc(-c2cccc(N(S(=O)(=O)c3ccc(C(F)(F)F)cc3)S(=O)(=O)c3ccc(C(F)(F)F)cc3)c2)c1`, the IC50 in experiment [13] was over 5000 nM.

With `CNCCN(C)Cc1cncc(-c2cccc(NS(=O)(=O)c3ccc([N+](=O)[O-])cc3)c2)c1`, the IC50 in experiment [13] is over 5000 nM.

As to `CN(CCN)Cc1cncc(-c2cccc(NS(=O)(=O)c3ccc([N+](=O)[O-])cc3)c2)c1`, the IC50 in [13] was over 5000 nM.

`NCCNC(=O)c1cncc(-c2ccc(NS(=O)(=O)C3CC3)cc2)c1` came in with an IC50 in [13] of over 5000 nM.

The molecule `CN(CCN)Cc1cncc(-c2cccc(NS(=O)(=O)C3CC3)c2)c1` had a half-inhibitory concentration (IC50) in experiment [13] of 2970 nM.

As for `CN(CCN)Cc1cncc(-c2ccc(OC(F)(F)F)cc2)c1`, in [13], the IC50 is 6360 nM.

Consider `CNCCN(C)Cc1cc(-c2ccc(NS(=O)(=O)C3CC3)cc2)ccn1`, for which, in [13], it took 1060 nM to reach half-maximal inhibition (IC50).

Molecule `CNCCN(C)Cc1cncc(-c2ccc(NS(=O)(=O)C(F)(F)F)cc2)c1` displayed an IC50 in experiment [13] of 213 nM.

In the case of `CNCCN(C)C(=O)c1cncc(-c2ccc(NS(=O)(=O)C3CC3)cc2)c1`, in experiment [13], the concentration for half-maximal inhibition (IC50) is over 5000 nM.

The molecule `CNCCN(C)Cc1cncc(-c2cccc(NS(=O)(=O)N(C)C)c2)c1` registered an IC50 in [13] of 2830 nM.

`CN(CCN)Cc1cncc(-c2cccc(NS(=O)(=O)N(C)C)c2)c1` registered an IC50 in experiment [13] of 4400 nM.

In experiment [13], `CN(CCN)Cc1cncc(-c2cccc(NS(=O)(=O)c3cnn(C)c3)c2)c1` showed an IC50 of over 5000 nM.

In turn, `CNCCN(C)Cc1cncc(-c2ccc(NC(=O)N3CCOCC3)cc2)c1` gave an IC50 in experiment [13] of 1350 nM.

`CNCCN(C)Cc1cncc(-c2cccc(NC(=O)N3CCOCC3)c2)c1` showed an IC50 in [13] of 1540 nM.

As to `COc1cc(OC)cc(-c2cncc(CN(C)CCN)c2)c1`, in [13], the IC50 is over 10000 nM.

Take `CNCCN(C)Cc1cncc(-c2cccc(NS(=O)(=O)c3ccc(C(F)(F)F)cc3)c2)c1`: in [13], the IC50 was over 5000 nM.

`CNCCNC(=O)c1cncc(-c2ccc(NS(=O)(=O)C3CC3)cc2)c1` displayed a half-maximal inhibitory concentration (IC50) in [13] of over 5000 nM.

Turning to `CNCCN(C)Cc1ccnc(-c2ccc(NS(=O)(=O)C3CC3)cc2)c1`, inhibition in experiment [13] was half-maximal at 30 nM (IC50).

In experiment [13], `CNCCN(C)Cc1ccncc1-c1ccc(NS(=O)(=O)C2CC2)cc1` yielded an IC50 of 3090 nM.

Take `CN(CCN)C(=O)c1cncc(-c2ccc(NS(=O)(=O)C3CC3)cc2)c1`: in experiment [13], the IC50 was over 5000 nM.

In experiment [13], `CNCCN(C)Cc1cncc(-c2cccc(NS(=O)(=O)c3ccccc3C)c2)c1` registered an IC50 of 1050 nM.

In experiment [13], `CN(CCN)Cc1cncc(-c2ccc(NS(=O)(=O)C3CC3)cc2)c1` displayed a half-maximal inhibitory concentration (IC50) of 1800 nM.

In experiment [13], `CNCCN(C)Cc1cncc(-c2cccc(N(S(=O)(=O)c3ccccc3C)S(=O)(=O)c3ccccc3C)c2)c1` displayed an IC50 of over 5000 nM.

The molecule `CNCCN(C)Cc1cncc(-c2cccc(NC(=O)C(C)C)c2)c1` had an IC50 in experiment [13] of 1590 nM.

For `CNCCN(C)Cc1cncc(-c2cccc(NS(=O)(=O)c3cnn(C)c3)c2)c1`, the half-maximal inhibitory concentration (IC50) in experiment [13] was over 5000 nM.

As for `CNCCN(C)Cc1cncc(-c2cccc(NS(=O)(=O)Cc3ccccc3)c2)c1`, in experiment [13], the IC50 was over 5000 nM.

`CNCCN(C)C(=O)c1cncc(-c2cccc(NS(=O)(=O)C3CC3)c2)c1` displayed an IC50 in [13] of over 5000 nM.

Molecule `CNCCN(C)Cc1cncc(-c2cccc(NS(=O)(=O)C3CC3)c2)c1` had an IC50 in [13] of 262 nM.

As to `Nc1ncnc2c1ncn2[C@@H]1O[C@H](CSCC[C@H](N)C(=O)O)[C@@H](O)[C@H]1O` [S-ADENOSYLHOMOCYSTEINE], the IC50 in [13] is 2180 nM.
